Results taken from US11878001B2, “Use of mavoglurant in the reduction of cocaine use or in preventing relapse into cocaine use” (NOVARTIS AG, priority 2017, dated 2024).
Entries after “also recorded” stand apart in the source; their conditions may differ.

How the values were obtained:
monoamine oxidase = conditions: cited from earlier work
mice = conditions: cited from earlier work
NMDA receptors = conditions: cited from earlier work
[1] = biological target: norepinephrine transporter (Homo sapiens, UniProt P23975); conditions: cited from earlier work
Chain of norepinephrine transporter (P23975 whole entry, species assumed): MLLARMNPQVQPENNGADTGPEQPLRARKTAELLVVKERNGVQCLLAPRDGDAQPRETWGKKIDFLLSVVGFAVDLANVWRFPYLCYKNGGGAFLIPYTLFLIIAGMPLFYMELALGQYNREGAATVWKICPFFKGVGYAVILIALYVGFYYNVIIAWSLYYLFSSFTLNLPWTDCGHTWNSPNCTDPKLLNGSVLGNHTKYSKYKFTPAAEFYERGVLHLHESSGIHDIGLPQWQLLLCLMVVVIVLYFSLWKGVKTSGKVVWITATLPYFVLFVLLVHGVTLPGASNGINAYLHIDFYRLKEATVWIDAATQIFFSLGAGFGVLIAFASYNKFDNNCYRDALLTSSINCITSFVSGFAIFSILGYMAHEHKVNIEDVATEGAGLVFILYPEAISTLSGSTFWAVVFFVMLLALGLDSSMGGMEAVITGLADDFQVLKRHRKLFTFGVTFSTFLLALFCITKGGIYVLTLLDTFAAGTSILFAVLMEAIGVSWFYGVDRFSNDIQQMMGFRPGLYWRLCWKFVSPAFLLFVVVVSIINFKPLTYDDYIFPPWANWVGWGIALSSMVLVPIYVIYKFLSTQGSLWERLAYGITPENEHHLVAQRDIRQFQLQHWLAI

rats = conditions: cited from earlier work
cytochrome P450 1A2 = biological target: T1, cytochrome P450 1A2 (Homo sapiens, UniProt P05177); conditions: cited from earlier work
T1 sequence (P05177 1-516): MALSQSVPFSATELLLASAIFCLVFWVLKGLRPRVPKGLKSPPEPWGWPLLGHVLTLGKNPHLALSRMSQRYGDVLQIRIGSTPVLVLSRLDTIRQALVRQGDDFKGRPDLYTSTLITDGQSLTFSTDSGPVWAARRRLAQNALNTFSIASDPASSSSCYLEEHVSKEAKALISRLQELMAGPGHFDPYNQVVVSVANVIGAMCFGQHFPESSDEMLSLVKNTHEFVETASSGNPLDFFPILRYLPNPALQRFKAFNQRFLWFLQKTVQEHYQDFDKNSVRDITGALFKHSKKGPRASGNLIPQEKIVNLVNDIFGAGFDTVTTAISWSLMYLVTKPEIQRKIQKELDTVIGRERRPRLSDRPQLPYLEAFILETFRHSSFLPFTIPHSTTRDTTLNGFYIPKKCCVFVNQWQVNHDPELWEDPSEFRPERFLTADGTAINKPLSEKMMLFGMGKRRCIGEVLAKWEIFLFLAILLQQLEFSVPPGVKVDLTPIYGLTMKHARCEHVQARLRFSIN

[2] = in vivo; cited from earlier work
Sprague-Dawley rats [3] = test: Cue-induced reinstatement of the cocaine self-administration response after extinction, Phase II; assay type: in vivo; conditions: 10 mg/kg PO, 1 hour prior to test; after 9-day extinction; N=14-15 per group
Description: (§1) Evaluation of the Effects of Mavoglurant on Cocaine Dependence and Cocaine Reinstatement Using the Intravenous Self-Administration Model in Sprague-Dawley Rats
(§2) Adult male Sprague-Dawley rats (300-325 g at arrival) from Harlan Laboratory (Indiana, USA) were used. Upon arrival, the rats were assigned a unique identification numbers (tail marks). Animals were single housed in suspended polycarbonate rat cages with filter tops, and were acclimated for up to 7 days. All rats were examined, handled, and weighed prior to initiation of the study to assure adequate health and suitability. During the course of the study, 12 h/12 h light/dark cycles were maintained. The room temperature was 21-23° C. with a relative humidity maintained at 30-70%. Water was provided ad libitum for the duration of the study.
(§3) Mavoglurant (free form) was formulated in 0.5% methylcellulose (MC) at 1, 3 and 10 mg/kg and administered orally at a dose volume of 1 ml/kg 60 minutes prior to test.
Intravenous drug self-administration took place in sound attenuated operant chambers equipped with an exhaust fan (Med Associates, VT). Each chamber contained two levers situated on one wall of the chamber. […]
During the reinstatement session, which occurred one day after the last extinction session, rats were presented the cues (flash+tone) at the beginning of the session and their lever-press responses recorded. […]

Sprague-Dawley rats [4] = test: Acute effects on intravenous cocaine self-administration (FR5) in rats, Phase I; assay type: in vivo; conditions: cocaine 0.3 mg/kg/infusion
Description: as §1, §2
Cocaine Hydrochloride (Sigma-Aldrich, USA) (1.05 mg/ml which is equivalent to 0.3 mg/kg/infusion under 350 g body weight and 0.1 ml/infusion rate) was dissolved in saline (0.9% NaCl). The formulation was a clear solution.
as §3
Intravenous drug self-administration took place in sound attenuated operant chambers equipped with an exhaust fan (Med Associates, VT). Each chamber contained two levers situated on one wall of the chamber. Only one of the two levers was active (located on the left side). Pressing the active lever caused delivery of reinforcer (food or cocaine). […] A stimulus light was located above each lever, but only the one above the active lever was on during the timeout period (defined below). A house light (providing illumination) was located at the top of opposite wall. For food training (see details below), a pellet receptacle was situated between the two levers for delivery of food pellets (Bio-Serv's Dustless Precision Pellets #F0165, 45 mg). […]

Cc1cccc(C#Cc2ccccc2)n1 [MPEP, 2-methyl-6-(2-phenylethynyl)pyridine]
off-target effects on monoamine oxidase (monoamine oxidase): off-target effects | cocaine self-administration (mice): decreased cocaine self-administration | off-target effects on NMDA receptors (NMDA receptors): off-target effects | off-target effects on the norepinephrine transporter [1]: off-target effects | cocaine self-administration (rats): decreased cocaine self-administration

Cc1nc(C#Cc2cccnc2)cs1 [MTEP, 3-[2-(2-methylthiazol-4-yl)ethynyl]pyridine]
cocaine self-administration (mice): decreased cocaine self-administration | inhibition of cytochrome P450 1A2 (cytochrome P450 1A2): potent inhibition | cocaine self-administration (rats): decreased cocaine self-administration

CNCCCN1c2ccccc2CCc2ccccc21 [desipramine]
cocaine craving [2]: reduce | cocaine use [2]: reduce | symptoms of cocaine withdrawal [2]: alleviate symptoms of cocaine withdrawal

COC(=O)N1CC[C@@H]2[C@H]1CCC[C@@]2(O)C#Cc1cccc(C)c1 [mavoglurant, (−)-(3aR,4S,7aR)-4-Hydroxy-4-m-tolylethynyl-octahydro-indole-1-carboxylic acid methyl ester]
cue-induced reinstatement of the self-administration response (Sprague-Dawley rats [3]): cue-induced reinstatement was suppressed; also recorded: completely prevented cue-induced reinstatement | responding on the active lever (cocaine self-administration) (Sprague-Dawley rats [4]; 3 mg/kg orally, 60 minutes prior to test, post hoc p<0.10, N=12): tended to reduce responding on the active lever | responding on the active lever (cocaine self-administration) (Sprague-Dawley rats [4]; 10 mg/kg PO, 1 hour prior to test, post hoc p<0.001, N=12): significantly reduced responding | responding on the active lever (cocaine self-administration) (Sprague-Dawley rats [4]; 10 mg/kg PO, 1 hour prior to test, post hoc p<0.001, N=12, listed as Mavoglurant): significantly reduced cocaine self-administration
